# In patent publication US8642656B2, “Calixarene-based peptide conformation mimetics, methods of use, and methods of making” (priority 2004, dated 2014):
# “Also recorded” adds a separate entry of the source. Where two headings read alike, the source gives them in different places.
# Assays:
# [1] = tested on: LPS from E. coli serotype 0111:B4; experiment: LPS neutralization assay (Limulus amoebocyte lysate, QCL-1000); format: biochemical; details: read-out: IC50 values (μM) for LPS binding, E. coli 0111:B4
# Outline: (§1)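 Compounds were tested for inhibition of LPS-triggered activation of the Limulus amoebocyte lysate proenzyme, which cleaves a chromogenic substrate to release p-nitroaniline read at 405-410 nm. Each LPS was used at 0.04 units. IC50 came from sigmoidal dose-response fits.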
# [2] = tested on: LPS from E. coli serotype 055:B5; experiment: as above; format: biochemical
# Outline: as §1
# [3] = tested on: LPS from P. aeruginosa; experiment: as above; format: biochemical, Pseudomonas aeruginosa; details: read-out: IC50 values (μM) for LPS binding, P.a.
# Outline: as §1
# [4] = tested on: LPS from K. pneumoniae; experiment: as above; format: biochemical, Klebsiella pneumoniae; details: read-out: IC50 values (μM) for LPS binding, Klebsiella
# Outline: as §1
# [5] = tested on: LPS from S. typhimurium; experiment: as above; format: biochemical, Salmonella typhimurium; details: read-out: IC50 values (μM) for LPS binding, Salmonella
# Outline: as §1
# [6] = tested on: LPS from S. marcascens; experiment: as above; format: biochemical, Serratia marcascens; details: read-out: IC50 values (μM) for LPS binding, Serratia
# Outline: as §1
# [7] = tested on: LPS from six species of bacteria; experiment: LPS neutralization assay, overall statements; format: biochemical; details: library of 23 compounds
# Source text: The ability of compounds to neutralize endotoxin was detected in vitro by using the chromogenic QCL-1000 kit from BioWhittaker, Inc. (Walkersville, Md.), and as described in their protocol. This Limulus amoebocyte lysate (LAL) assay is quantitative for Gram negative bacterial endotoxin (lipopolysaccharide, LPS). In this assay compounds that are active inhibit the LPS-mediated activation of a proenzyme whose active form would release p-nitroaniline (pNA) from a colorless synthetic substrate producing a yellow color (pNA) whose absorption is monitored spectrophotometrically at 405-410 nm. The initial rate of enzyme activation is proportional to the concentration of endotoxin present.
# Variants of LPS from six Gram negative bacteria were used: E. coli serotypes 0111:B4 (Combrex, Walkersville, Md.) and 055:B5 (Sigma, St. Louis, Mo.); Klebsiella pneumoniae (List Biologies, San Jose, Calif.); Pseudomonas aeruginosa (List Biologies, San Jose, Calif.); Salmonella typhimurium (List Biologies, San Jose, Calif.), and Serratia marcascens (List Biologies, San Jose, Calif.). The concentration of compound required to neutralize a given LPS and therefore to inhibit the Limulus amoebocyte lysate driven by 0.04 units of any given LPS was determined by dose response curves fit by using a standard sigmoidal function to determined the JC50 value for each lopomimetic compound. […]
# [8] = tested on: LPS from E. coli 055:B5; experiment: Endotoxemia study in mice, lethal dose of E. coli 055:B5 LPS; format: in vivo; details: E. coli 055:B5 LPS 600 μg; 5 mg/kg
# Experimental: In three separate studies, these compounds were tested against LPS derived from E. coli serotype 0111:B4, E. coli serotype 055:B5 LPS, and Salmonella. The compounds (in a final concentration of 2% DMSO v/v), were first mixed individually with LPS, and incubated for 30 minutes prior to i.p. injection into C57/BL6 mice (n=4-8/group). The control mice were treated with DMSO (2% v/v) alone. Each mouse received a lethal dose of LPS, with or without one of the compounds.
# (§2) J Bacteriol 93, 1463-4 (1967)). Mice were provided food and water as usual ad libitum, and monitored for several days. When it was observed that mice were in distress and death was imminent, animals were sacrificed; in some cases, mice expired during the night and were found dead the following morning. Data are plotted as the number of surviving mice versus lime in hours. Statistical analysis was performed on the average amount of survival time per group with a maximum or 120 hours (surviving mice) by using the Student's t-test.
# [9] = Acute toxicity observed in the endotoxemia model; format: in vivo, mice; details: i.p., single dose of 50 mg/kg, together with LPS
# Experimental: as §2, with “C57 male black mice were injected i.p. with a solution that contained a lethal dose of LPS [600 μg of LPS from E. coli 055:B5 and Salmonella, and 500 μg of LPS from […]] and 1.25 mg of the lopomimetic compound (a dose of 50 mg/kg) (Rifkind, D. J” for “J”
substance,measurement,setting,value
"5,11,17,23-Tetra-tert-butyl-25,26,27,28-tetrakis(4-guanidinobutoxy) calix[4]arene trifloroacetic acid salt [Compound 42]",IC50,[1]; Table 2,0.7 µM
same,IC50,"[1]; Table 3, errors estimated ±30%",0.7 µM
same,IC50,"[2]; Table 2, read-out: IC50 values (μM) for LPS binding, E. coli 055:B4",0.04 µM
same,IC50,"[2]; Table 3, errors estimated ±30%, read-out: IC50 values (μM) for LPS binding, E. coli 055:B5",0.04 µM
same,IC50,[3]; Table 2,1.5 µM
same,IC50,"[3]; Table 3, errors estimated ±30%",1.5 µM
same,IC50,[4]; Table 2,1 µM
same,IC50,"[4]; Table 3, errors estimated ±30%",1 µM
same,IC50,[5]; Table 2,0.6 µM
same,IC50,"[5]; Table 3, errors estimated ±30%",0.6 µM
same,IC50,[6]; Table 2,> 5 µM
same,IC50,"[6]; Table 3, errors estimated ±30%",> 5 µM
same,"neutralizing LPS, ranking in words",[7],best LPS neutralizing compounds; also recorded: most effective for neutralizing LPS
same,survival of LPS-challenged mice,[8],ineffective
same,sign of acute toxicity,[9],did not demonstrate any sign of acute toxicity
